The text below walks through data of patent US20060141054A1, “Metal coordinated compositions” (priority 2004, published 2006).

Broadly, the pKa is the pH at which an ionisable group is half protonated.

The nature of data set [1]: Log D at pH 7.4 (octanol/water). The data set is classed as physicochemical.
Experimental: Log D is the log distribution coefficient at a particular pH (Equation 8). […] Log D=log10(Distribution Coefficient) Equation 8
(§1) Determination of pKa and log P was done by potentiometry and spectrophotometry. The potentiometric method includes the use of expert software to calculate pKa and log P from simple acid and base titrations of the analytes. The pKa was first determined by weighing approximately 2 mg of pure substance into an assay vial. […] The solution was then titrated with acid (0.5N HCl) or base (0.5N NaOH) to the final pH.
The log P was determined by a titration in the presence of octanol (water saturated). The pKa in water and the apparent pKa in the presence of octanol (poKa) were compared and the log P determined. Ion-pairing (partitioning of a charged species into octanol, termed log P^+ or log P^−) were determined with an additional titration in the presence of another volume of octanol. Using experimentally determined pKa and log P, a drug lipophilicity profile (log D. vs. pH) was calculated. The log D7.4 was determined from this profile at pH 7.4.
The conditions of data set [2]: water, 0.15 m kcl.
Experimental: as §1
(§2) A minimum of three ratios of water/DMSO was titrated to obtain psKa (apparent pKa in the presence of cosolvent). The aqueous pKa was determined by extrapolation using the Yasuda-Shedlovsky technique.
Data set [3] is described as follows: physchem. The settings on record: water, 0.15 m kcl.
Experimental: as §1, §2
Data set [4] is described as follows: Equilibrium/stability constants of zinc complexes. The class given is physicochemical. The settings on record: approximated.
Data set [5] can be described thus: Equilibrium/stability constants of magnesium complexes. The data set is classed as physicochemical. The settings on record: estimated from literature precedents of similar compounds.

In the case of `N[C@@H](Cc1cc(I)c(Oc2ccc(O)c(I)c2)c(I)c1)C(=O)[O-].N[C@@H](Cc1cc(I)c(Oc2ccc(O)c(I)c2)c(I)c1)C(=O)[O-].[Zn+2]` [Bis(triiodothyroninato)zinc], the “Log D7.4” value in data set [1] stood at 3.43. Moreover, in data set [2], the “pKa (first listed)” value was determined as 6.66 and the “pKa (second listed)” value turned out to be 6.42.
With `N[C@@H](Cc1cc(I)c(Oc2ccc(O)c(I)c2)c(I)c1)C(=O)O` [Triiodothyronine], in data set [1] (Method Potentiometric, read-out: Log D7.4), the logD came to 2.8. Besides, the pKa in data set [3] (pKa (first listed)) was 8.41; in data set [3] (pKa (second listed)), 8.07.
Regarding `N[C@@H](Cc1ccccc1)C(=O)O.[Zn]` [phenylalanine-zinc], the “cumulative binding constant, β2” value in data set [4] stood at 8.5.
Consider Bis(acycloguanosinato)magnesium, for which the “log Keq (estimated)” value in data set [5] is on record as 1.6.
